Legend:
rat [1] = details: Fertility (Segment I), sprague dawley, Oral, Gavage/Intubation, dose end: 7 GD
rat [2] = details: Chronic toxicity; sprague dawley; Oral; Gavage/Intubation; dose end: 6 month; group: systemic; systemic / clinical chemistry / estradiol / estradiol + systemic / clinical chemistry / prolactin / prolactin + systemic / clinical …
rat [3] = details: Sub-acute repeat dose toxicity, other, Oral, Gavage/Intubation, dose end: 29 day, group: systemic
rat [4] = details: Fertility (Segment I), sprague dawley, Oral, Gavage/Intubation, dose end: 14 GD
rabbit = details: Prenatal developmental toxicity study, other, Oral, Gavage/Intubation, dose end: 18 GD
rat [5] = details: Sub-acute repeat dose toxicity, sprague dawley, Oral, Gavage/Intubation, dose end: 1 month, group: systemic
mouse = details: Subchronic oral toxicity in rodents, cd1, Gavage/Intubation, dose end: 13 weeks, group: systemic, systemic / in life observation / body weight / body weight + systemic / in life observation / body weight / body weight gain + systemic / in…
dog [6] = details: Chronic toxicity, beagle, Oral, Gavage/Intubation, dose end: 6 month, group: systemic
rat [7] = details: Fertility (Segment I), sprague dawley, Oral, Gavage/Intubation, dose end: 7 GD; remark: listed apart in the source
rat [8] = details: Prenatal developmental toxicity study, sprague dawley, Oral, Gavage/Intubation, dose end: 17 GD, group: maternal
dog [9] = details: Sub-acute repeat dose toxicity, beagle, Oral, Gavage/Intubation, dose end: 4 week, group: systemic
rat [10] = details: Prenatal developmental toxicity study, Sprague Dawley OFA, Oral, Gavage/Intubation, dose end: 17 GD, group: maternal
dog [11] = details: Chronic toxicity, beagle, Oral, Gavage/Intubation, dose end: 12 month, group: systemic
[12] = group: maternal, reproductive / reproductive performance / fertility / fertility + reproductive / reproductive performance / implantations / implantations + …
[13] = group: parental, systemic / in life observation / clinical signs / drooping eyelids (ptosis) + systemic / pathology gross / vagina / dilatation
[14] = systemic / hematology / platelet / platelet + systemic / in life observation / body weight / body weight + systemic / in life observation / …
[15] = systemic / in life observation / clinical signs / drooping eyelids (ptosis) + systemic / in life observation / clinical signs / lacrimation …
[16] = group: maternal, reproductive / reproductive performance / fertility / fertility
[17] = group: parental, systemic / in life observation / body weight / body weight gain + systemic / in life observation / clinical signs / [other] + systemic / in …
[18] = group: developmental, systemic / in life observation / body weight / fetal weight
[19] = group: maternal, systemic / in life observation / body weight / body weight gain + systemic / in life observation / food consumption / food consumption + …
[20] = systemic / clinical chemistry / triglycerides / triglycerides + systemic / in life observation / body weight / body weight gain + systemic…
[21] = systemic / pathology gross / vagina / dilatation + systemic / pathology gross / skin / [other]
[22] = systemic / clinical chemistry / albumin / albumin + systemic / clinical chemistry / albumin-globulin ratio / albumin-globulin ratio + …
[23] = systemic / in life observation / clinical signs / [other] + systemic / in life observation / clinical signs / defecation (diarrhea) + …
[24] = group: maternal, reproductive / reproductive performance / estrous cycle / abnormal + reproductive / reproductive performance / estrous cycle / length
[25] = group: maternal, reproductive / reproductive performance / estrous cycle / abnormal + reproductive / reproductive performance / estrous cycle / length + …
[26] = group: parental, systemic / in life observation / body weight / body weight gain + systemic / in life observation / clinical signs / drooping eyelids (ptosis…
[27] = systemic / in life observation / body weight / body weight gain + systemic / in life observation / clinical signs / drooping eyelids (ptosis…
[28] = systemic / in life observation / clinical signs / pulse/pressure + systemic / urinalysis / protein / protein
[29] = systemic / in life observation / clinical signs / pulse/pressure + systemic / urinalysis / protein / protein + systemic / in life …
[30] = systemic / in life observation / body weight / body weight + systemic / in life observation / clinical signs / drooping eyelids (ptosis)
[31] = systemic / in life observation / clinical signs / drooping eyelids (ptosis)
[32] = systemic / clinical chemistry / bilirubin / total bilirubin + systemic / hematology / platelet / platelet + systemic / in life observation…
[33] = systemic / clinical chemistry / bilirubin / total bilirubin + systemic / in life observation / clinical signs / [other] + systemic / in life…

## NC(=O)Cn1c(=O)cc(CCN2CCN(c3nccc4sccc34)CC2)c2ccc(F)cc21 [Trelanserin]
Rat [1]; [12]
  LEL: 80 mg/kg/day
  LOAEL: > 80 mg/kg/day
  NEL: < 80 mg/kg/day
  NOAEL: ≥ 80 mg/kg/day
Rat [1]; [13]
  LEL: 80 mg/kg/day
  LOAEL: > 80 mg/kg/day
  NEL: < 80 mg/kg/day
  NOAEL: ≥ 80 mg/kg/day
Rat [2]
  LEL: 4 mg/kg/day
  LOAEL: 20 mg/kg/day
  NEL: < 4 mg/kg/day
  NOAEL: 4 mg/kg/day
Rat [3]; [14]
  LOAEL: > 100 mg/kg/day
  NOAEL: ≥ 100 mg/kg/day
Rat [3]; [15]
  LEL: 4 mg/kg/day
  NEL: < 4 mg/kg/day
Rat [4]; [16]
  LEL: 150 mg/kg/day
  LOAEL: > 150 mg/kg/day
  NEL: 20 mg/kg/day
  NOAEL: ≥ 150 mg/kg/day
Rat [4]; [17]
  LOAEL: > 150 mg/kg/day
  NEL: 4 mg/kg/day
  NOAEL: ≥ 150 mg/kg/day
Rat [4]; group: parental, systemic / in life observation / clinical signs / [other] + systemic / in life observation / clinical signs / drooping eyelids (ptosis) + …
  LEL: 20 mg/kg/day
rabbit; [18]
  LEL: 10 mg/kg/day
  LOAEL: > 30 mg/kg/day
  NEL: 5 mg/kg/day
  NOAEL: ≥ 30 mg/kg/day
rabbit; group: maternal, reproductive / reproductive performance / postimplantation loss / postimplantation loss
  LEL: 5 mg/kg/day
rabbit; group: maternal, reproductive / reproductive performance / postimplantation loss / postimplantation loss + systemic / in life observation / body weight / …
  NEL: 2 mg/kg/day
rabbit; [19]
  LOAEL: > 30 mg/kg/day
  NOAEL: ≥ 30 mg/kg/day
Rat [5]; [20]
  LOAEL: 20 mg/kg/day
  NOAEL: 2 mg/kg/day
Rat [5]; [21]
  LEL: 2 mg/kg/day
  NEL: < 2 mg/kg/day
mouse
  LEL: 62.5 mg/kg/day
  LOAEL: 250 mg/kg/day
  NEL: < 62.5 mg/kg/day
  NOAEL: 125 mg/kg/day
Dog [6]; [22]
  LOAEL: > 100 mg/kg/day
  NOAEL: ≥ 100 mg/kg/day
Dog [6]; [23]
  LEL: 4 mg/kg/day
  NEL: < 4 mg/kg/day
Rat [7]; [24]
  LEL: 4 mg/kg/day
  NEL: < 4 mg/kg/day
Rat [7]; [25]
  LOAEL: > 20 mg/kg/day
  NOAEL: ≥ 20 mg/kg/day
Rat [7]; [26]
  LEL: 10 mg/kg/day
  LOAEL: > 20 mg/kg/day
  NEL: 4 mg/kg/day
  NOAEL: ≥ 20 mg/kg/day
Rat [8]; [27]
  LOAEL: > 20 mg/kg/day
  NEL: 1 mg/kg/day
  NOAEL: ≥ 20 mg/kg/day
Rat [8]; systemic / in life observation / clinical signs / drooping eyelids (ptosis) + systemic / in life observation / clinical signs / red or …
  LEL: 5 mg/kg/day
Dog [9]; [28]
  LEL: 1 mg/kg/day
  NEL: < 1 mg/kg/day
Dog [9]; [29]
  LOAEL: > 16 mg/kg/day
  NOAEL: ≥ 16 mg/kg/day
Rat [10]; [30]
  LOAEL: > 20 mg/kg/day
  NOAEL: ≥ 20 mg/kg/day
Rat [10]; [31]
  LEL: 5 mg/kg/day
  NEL: < 5 mg/kg/day
Dog [11]; [32]
  LOAEL: > 80 mg/kg/day
  NOAEL: ≥ 80 mg/kg/day
Dog [11]; [33]
  LEL: 2 mg/kg/day
  NEL: < 2 mg/kg/day

— EPA's ToxRefDB 2
